Source: ChEMBL document CHEMBL4619759, “A DNA Repair Inhibitor Isolated from an Ecuadorian Fungal Endophyte Exhibits Synthetic Lethality in PTEN-Deficient Glioblastoma” (2020)
Calls of active or inactive are those of the source. No cut-off for these calls is given here.

Experiments:
U-251 [1] = assay: Induction of DNA damage in PTEN-deficient human U251 cells assessed as gammaH2AX foci formation at 12.5 ug/ml in presence of 5 Gy IR irradiation measured after 4 to 24 hrs by PI staining based flow cytometric analysis; assay type: functional, cell-based
U-251 [2] = assay: Induction of cell cycle arrest in PTEN-proficient human U251 cells assessed as accumulation at G2/M phase at 6.25 to 12.5 ug/ml incubated for 4 hrs followed by irradiation with 5 Gy IR by PI staining based flow cytometric analysis; assay type: functional
U-251 [3] = assay: Inhibition of DSB repair in PTEN-deficient 5 Gy IR-induced human U251 cells assessed as increase in comet tail moment at 12.5 ug/ml pretreated followed by irradiation with 5 Gy IR by neutral comet assay; assay type: functional, cell-based
[4] = Inhibition of DSB repair in PTEN-deficient human U2OS EJ-DR cells assessed as reduction in mutagenic non-homologous end joining activity at 12.5 ug/ml incubated for 24 hrs in presence of DSB inducer by flow cytometric analysis relative to control; assay type: functional
U-251 [5] = assay: Radiosensitizer activity in PTEN-deficient human U251 cells assessed as reduction in cell survival at 6.25 to 12.5 ug/ml in presence of 5 Gy IR irradiation by CellTiter-Glo cell viability assay; assay type: functional, cell-based
[6] = Inhibition of DSB repair in PTEN-deficient human U2OS EJ-DR cells assessed as reduction in homologous recombination activity at 12.5 ug/ml incubated for 24 hrs in presence of DSB inducer by flow cytometric analysis relative to control; assay type: functional
U-251 [7] = assay: Induction of DNA damage in PTEN-proficient human U251 cells assessed as accumulation of gammaH2AX positive cells at G2/M phase at 6.25 to 12.5 ug/ml measured after 4 to 24 hrs by PI staining based flow cytometric analysis; assay type: functional, cell-based
U-251 [8] = assay: Induction of DNA damage in PTEN-deficient human U251 cells assessed as accumulation of gammaH2AX positive cells at G2/M phase at 6.25 to 12.5 ug/ml measured after 4 to 24 hrs by PI staining based flow cytometric analysis; assay type: functional, cell-based
U-251 [9] = assay: Inhibition of DSB repair in PTEN-deficient human U251 cells at 12.5 ug/ml by neutral comet assay; assay type: functional, cell-based
U-251 [10] = assay: Induction of cell cycle arrest in PTEN-deficient human U251 cells assessed as accumulation at G1 phase at 6.25 to 12.5 ug/ml after 4 to 24 hrs by PI staining based flow cytometric analysis; assay type: functional
U-251 [11] = assay: Induction of DNA damage in PTEN-proficient human U251 cells assessed as accumulation of gammaH2AX positive cells at G1 phase at 6.25 to 12.5 ug/ml measured after 4 to 24 hrs by PI staining based flow cytometric analysis; assay type: functional, cell-based
U-251 [12] = assay: Induction of DNA damage in PTEN-deficient human U251 cells assessed as accumulation of gammaH2AX positive cells at S phase at 6.25 to 12.5 ug/ml measured after 4 to 24 hrs by PI staining based flow cytometric analysis; assay type: functional, cell-based
U-251 [13] = assay: Induction of DNA damage in PTEN-proficient human U251 cells assessed as accumulation of gammaH2AX positive cells at S phase at 6.25 to 12.5 ug/ml measured after 4 to 24 hrs by PI staining based flow cytometric analysis; assay type: functional, cell-based
U-251 [14] = assay: Induction of cell cycle arrest in PTEN-deficient human U251 cells assessed as accumulation at G2/M phase at 6.25 to 12.5 ug/ml incubated for 4 hrs followed by irradiation with 5 Gy IR by PI staining based flow cytometric analysis; assay type: functional
U-251 [15] = assay: Selective cytotoxicity against PTEN-deficient human U251 cells at 12.5 ug/ml after 48 hrs by CellTiter-Glo luminescent cell viability assay; assay type: functional, cell-based
U-251 [16] = assay: Induction of DNA damage in PTEN-deficient human U251 cells assessed as gammaH2AX accumulation at 6.25 to 12.5 ug/ml after 4 to 24 hrs by PI staining based flow cytometric analysis; assay type: functional, cell-based
U-251 [17] = assay: Induction of DNA damage in PTEN-deficient human U251 cells assessed as accumulation of gammaH2AX positive cells at G1 phase at 12.5 ug/ml in presence of 5 Gy IR irradiation measured after 4 to 24 hrs by PI staining based flow cytometric analysis; assay type: functional, cell-based
U-251 [18] = assay: Induction of DNA damage in PTEN-deficient human U251 cells assessed as accumulation of gammaH2AX positive cells at G1 phase at 6.25 to 12.5 ug/ml measured after 4 to 24 hrs by PI staining based flow cytometric analysis; assay type: functional, cell-based

O=C1Nc2ccccc2-c2ccnc3ccc(O)c1c23
Activity (U-251 [1]): Active
Activity (U-251 [2]): Active
inhibition (U-251 [3]): Active
inhibition at 12.5 µg/mL [4]: 48%
Activity (U-251 [5]): Active
inhibition at 12.5 µg/mL [6]: 46%
Activity (U-251 [7]): inactive
Activity (U-251 [8]): inactive
inhibition (U-251 [9]): Active
Activity (U-251 [10]): Active
Activity (U-251 [11]): inactive
Activity (U-251 [12]): inactive
Activity (U-251 [13]): inactive
Activity (U-251 [14]): Active
Activity (U-251 [15]): Active
Activity (U-251 [16]): Active
Activity (U-251 [17]): Active
Activity (U-251 [18]): inactive
